Results taken from article PMC9602792, “Preclinical evaluation of the epithelial sodium channel inhibitor AZD5634 and implications on human translation” (American Journal of Physiology - Lung Cellular and …, 2022).

How the values were obtained:
hERG = target: T1, hERG (Homo sapiens, UniProt Q12809); assay: Secondary pharmacology binding panel (Millipore & Cerep); conditions: at 10 µM
T1 construct: Millipore & Cerep (outsourced panels)
Source text: As pharmacological properties regarding selectivity are crucial for the development of ENaC inhibitors, we first assessed the properties of AZD5634 through a standard battery of assessments.

ENaC = target: T2, ENaC (Homo sapiens, UniProt P37088+P51168+P51170); assay: Ussing chamber short-circuit current (Isc) in normal HBEC ALI cultures from healthy donors; format: cell-based
T2 construct: host or cells: primary normal human bronchial epithelial cells, ALI culture
T2 sequence (P37088 1-669): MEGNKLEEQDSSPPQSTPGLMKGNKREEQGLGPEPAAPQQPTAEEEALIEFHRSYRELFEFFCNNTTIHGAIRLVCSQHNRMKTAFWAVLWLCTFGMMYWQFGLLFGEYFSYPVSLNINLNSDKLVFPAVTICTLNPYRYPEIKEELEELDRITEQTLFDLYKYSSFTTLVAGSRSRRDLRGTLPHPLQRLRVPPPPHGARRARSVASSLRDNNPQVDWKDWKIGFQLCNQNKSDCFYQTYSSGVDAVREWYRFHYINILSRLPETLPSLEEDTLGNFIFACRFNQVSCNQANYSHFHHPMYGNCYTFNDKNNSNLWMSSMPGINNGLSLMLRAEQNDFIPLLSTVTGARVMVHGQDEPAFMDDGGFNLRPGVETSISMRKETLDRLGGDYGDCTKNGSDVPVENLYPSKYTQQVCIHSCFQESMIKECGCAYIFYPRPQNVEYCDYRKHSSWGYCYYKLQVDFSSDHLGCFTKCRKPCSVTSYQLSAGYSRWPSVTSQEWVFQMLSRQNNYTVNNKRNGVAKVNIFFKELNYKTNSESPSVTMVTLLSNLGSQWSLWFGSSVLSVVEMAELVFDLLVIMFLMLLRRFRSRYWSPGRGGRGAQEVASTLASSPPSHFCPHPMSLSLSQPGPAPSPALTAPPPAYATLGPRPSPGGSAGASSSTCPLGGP
T2 sequence (P51168 1-640): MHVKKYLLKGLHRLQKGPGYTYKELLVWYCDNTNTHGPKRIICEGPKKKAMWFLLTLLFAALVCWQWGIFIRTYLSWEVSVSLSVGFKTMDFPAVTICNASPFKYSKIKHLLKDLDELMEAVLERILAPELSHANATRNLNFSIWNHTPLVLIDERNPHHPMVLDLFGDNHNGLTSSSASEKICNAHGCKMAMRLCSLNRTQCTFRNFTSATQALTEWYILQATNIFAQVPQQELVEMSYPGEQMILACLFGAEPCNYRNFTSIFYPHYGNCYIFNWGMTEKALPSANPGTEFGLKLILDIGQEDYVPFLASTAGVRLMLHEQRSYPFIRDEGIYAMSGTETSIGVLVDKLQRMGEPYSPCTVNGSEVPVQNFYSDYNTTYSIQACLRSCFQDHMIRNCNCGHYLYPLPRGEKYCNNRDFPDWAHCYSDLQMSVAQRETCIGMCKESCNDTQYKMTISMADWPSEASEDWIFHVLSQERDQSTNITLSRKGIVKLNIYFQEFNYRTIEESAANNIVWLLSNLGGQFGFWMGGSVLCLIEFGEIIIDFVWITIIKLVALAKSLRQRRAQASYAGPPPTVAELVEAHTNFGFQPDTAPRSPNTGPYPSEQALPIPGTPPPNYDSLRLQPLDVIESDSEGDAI
T2 sequence (P51170 1-649): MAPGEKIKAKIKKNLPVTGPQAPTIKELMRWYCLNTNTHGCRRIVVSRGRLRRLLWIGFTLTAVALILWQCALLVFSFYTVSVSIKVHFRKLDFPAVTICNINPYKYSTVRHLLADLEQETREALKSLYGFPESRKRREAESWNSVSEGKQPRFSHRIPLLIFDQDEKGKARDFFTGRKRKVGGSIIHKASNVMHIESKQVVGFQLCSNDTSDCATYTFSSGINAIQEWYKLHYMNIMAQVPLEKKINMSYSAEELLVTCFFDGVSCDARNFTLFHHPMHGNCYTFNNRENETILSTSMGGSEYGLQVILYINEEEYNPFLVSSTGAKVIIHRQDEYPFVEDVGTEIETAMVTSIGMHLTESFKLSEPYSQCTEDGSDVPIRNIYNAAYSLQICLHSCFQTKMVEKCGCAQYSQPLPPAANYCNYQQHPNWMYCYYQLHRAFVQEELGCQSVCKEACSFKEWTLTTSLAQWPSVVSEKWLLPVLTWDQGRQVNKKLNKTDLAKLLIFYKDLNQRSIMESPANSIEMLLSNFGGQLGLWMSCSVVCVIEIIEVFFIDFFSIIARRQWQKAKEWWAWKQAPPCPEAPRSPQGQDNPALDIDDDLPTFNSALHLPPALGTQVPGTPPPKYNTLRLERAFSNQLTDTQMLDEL
Experimental: Normal human bronchial epithelial cell (HBEC) cultures from healthy donors were procured from MatTek Corporation (Ashland, MA), grown at an ALI on Transwell permeable supports (0.4 µm polycarbonate membrane, 12 mm insert, and Costar Corning), and used to test the in vitro potency of AZD5634. Using the same protocol, sheep ALI cultures were prepared from primary bronchial epithelial cells (native sheep tracheas were obtained from Öströö Sheep Farm, Sweden, and internally processed at AstraZeneca R&D, Gothenburg, Sweden) to validate AZD5634 potency at sheep ENaC. Experiments were performed using modified Ussing chambers containing carboxygenated Krebs solution (95% O2-5% CO2) at 37°C. Cell layers were allowed to equilibrate before being voltage-clamped at 0 mV, and then briefly clamped at 10 mV to assess transepithelial electrical resistance.
All data are presented as means ± SE. Values of n refer to the number of cultures used in each group as appropriate. For normally distributed data, paired or unpaired Student’s t tests were used. For data that were not normally distributed, Mann–Whitney U test and Wilcoxon-matched pairs test were used. For comparisons of multiple groups, ANOVA tests were used followed by Tukey–Kramer multiple comparisons test (parametric) or ANOVA followed by Kruskal–Wallis test (nonparametric). For experiments using primary HBECs, a minimum of four different donors supplied cultures for each experiment. For the Ussing chamber data, unconstrained concentration–response curves were fitted using an in-house Microsoft Excel add-in package by nonlinear, four parameter, logistic regression analysis. From these curves, pEC50 and Emax values were taken from which mean values were calculated.

T1 sequence (Q12809 whole entry): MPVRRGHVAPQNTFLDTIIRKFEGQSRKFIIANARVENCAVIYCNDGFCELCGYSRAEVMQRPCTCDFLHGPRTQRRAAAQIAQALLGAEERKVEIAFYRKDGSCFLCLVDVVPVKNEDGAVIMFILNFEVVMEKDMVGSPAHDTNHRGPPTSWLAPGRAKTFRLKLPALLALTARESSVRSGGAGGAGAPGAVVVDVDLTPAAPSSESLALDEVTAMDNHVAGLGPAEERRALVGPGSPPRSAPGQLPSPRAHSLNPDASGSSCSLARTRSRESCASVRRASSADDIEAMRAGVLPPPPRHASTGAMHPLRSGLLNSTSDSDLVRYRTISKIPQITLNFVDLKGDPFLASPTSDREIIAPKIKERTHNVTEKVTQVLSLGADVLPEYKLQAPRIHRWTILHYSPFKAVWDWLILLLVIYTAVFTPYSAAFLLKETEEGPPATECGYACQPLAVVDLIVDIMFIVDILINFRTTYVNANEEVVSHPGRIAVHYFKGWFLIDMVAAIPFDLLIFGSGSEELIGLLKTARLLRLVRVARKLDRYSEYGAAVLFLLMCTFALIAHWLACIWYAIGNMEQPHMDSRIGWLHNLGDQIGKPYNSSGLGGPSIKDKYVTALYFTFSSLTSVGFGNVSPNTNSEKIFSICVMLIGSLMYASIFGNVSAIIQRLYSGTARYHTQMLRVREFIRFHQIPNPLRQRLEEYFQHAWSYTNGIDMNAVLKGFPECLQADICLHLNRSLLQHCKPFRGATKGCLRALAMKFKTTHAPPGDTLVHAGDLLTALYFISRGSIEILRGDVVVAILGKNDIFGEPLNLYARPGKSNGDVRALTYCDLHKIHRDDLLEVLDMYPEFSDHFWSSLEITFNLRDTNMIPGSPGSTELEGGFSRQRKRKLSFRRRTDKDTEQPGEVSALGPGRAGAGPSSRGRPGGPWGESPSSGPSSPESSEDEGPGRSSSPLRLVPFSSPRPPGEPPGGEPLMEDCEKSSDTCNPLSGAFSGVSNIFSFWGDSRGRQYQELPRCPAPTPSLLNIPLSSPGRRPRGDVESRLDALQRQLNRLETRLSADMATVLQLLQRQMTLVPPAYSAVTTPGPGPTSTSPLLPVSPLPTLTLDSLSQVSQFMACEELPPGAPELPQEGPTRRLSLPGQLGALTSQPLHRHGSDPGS

additional effect on Isc when benzamil was added (ENaC; benzamil 10 µM on final response plateau): No additional effect | potency of inhibition of amiloride-sensitive current (Isc) relative to amiloride (ENaC; non-CF and CF airway cells): 2 to 3 logs | IC50 (ENaC; normal HBEC ALI cultures, normalized to 10 µM benzamil = 100%, read-out: IC50 for decrease in Isc (EC50 in Fig. 1A legend)): 3.8 nM | potency shift versus benzamil (ENaC; normal HBEC cultures, Isc): 1 log unit
Substance: AZD5634
hERG inhibition (hERG): 13%
